In US7393952B2, “Solvent free amorphous rapamycin” (Cordis Corporation, priority 2004, dated 2008):

Experiment: differential scanning calorimetry (DSC) of amorphous sirolimus
Assay type: physicochemical
Details: DSC curve for this sample (FIG. 6); about 3 mg, heating rate 2° C./min, -40 to 200° C., nitrogen flow
Procedure: In another test, the amorphous sirolimus is analyzed utilizing differential scanning calorimetry (DSC). Essentially, the purpose of this test is to determine the glass transition temperature of the amorphous sirolimus. In this test, approximately 3 mg of amorphous sirolimus is transferred into a standard aluminum TA-Instrument sample pan and covered. The DSC curve is recorded on a TA-Instruments Q1000 MTDSC equipped with a RCS cooling unit. FIG. 6 illustrates a differential scanning calorimetry (DSC) curve of amorphous sirolimus. […] Based on a number of scans, the glass transition temperatures may be in the range from about 92 degrees C. to about 95 degrees C.

CO[C@H]1C[C@@H]2CC[C@@H](C)[C@@](O)(O2)C(=O)C(=O)N2CCCC[C@H]2C(=O)O[C@H]([C@H](C)C[C@@H]2CC[C@@H](O)[C@H](OC)C2)CC(=O)[C@H](C)/C=C(\C)[C@@H](O)[C@@H](OC)C(=O)[C@H](C)C[C@H](C)/C=C/C=C/C=C/1C [amorphous sirolimus, sirolimus (rapamycin)]
glass transition temperature: about 93 degrees C.
